≈ marks a conversion by molar mass, not a printed value.
Assays:
Format in all cases: cell-based
P. aeruginosa NCTC 10490 = test: MIC against standard strains (Table 1), P. aeruginosa NCTC 10490; conditions: Pseudomonas aeruginosa, NCTC10490, Muller-Hinton agar, overnight 37° C., read-out: MIC (minimum growth inhibitory concentration)
Procedure: (§1) The minimum growth inhibitory concentration (MIC, μg/ml) of the compounds for each of the 25 standard laboratory strains (standard strains) shown in Table 1 was determined in accordance with the standard method of the Japan Chemotherapical Society (Chemotherapy, 29, 76-79 (1981) under "Re-revision of the measuring methods of minimum growth inhibitory concentration (MIC)").
(§2) That is, by using each test strain cultured overnight at 37° C. in a Muller-Hinton broth, there was prepared a bacterial solution with a cell density of 1×10^6 CFU/ml in the same broth. The bacterial solution was inoculated into the Muller-Hinton agar media each containing respectively one test agent (i.e., compound) and, after overnight incubation at 37° C., the minimum concentration that inhibited growth of the bacteria was determined and expressed as MIC.
(§3) Staphylococcus aureus 167 and Staphylococcus aureus 195 used in the test were MRSA. CTM (cefotiam) and FMOX (flomoxef) were used as the control agents.

P. mirabilis IFO 3849 = test: MIC against standard strains (Table 1), P. mirabilis IFO 3849; conditions: Proteus mirabilis, IFO3849, Muller-Hinton agar, overnight 37° C., read-out: MIC (minimum growth inhibitory concentration)
Procedure: as §1, §2, §3

E. cloacae Nek39 = test: MIC against standard strains (Table 1), E. cloacae Nek39; conditions: Enterobacter cloacae, Muller-Hinton agar, overnight 37° C., read-out: MIC (minimum growth inhibitory concentration)
Procedure: as §1, §2, §3

S. aureus 195 = test: MIC against standard strains (Table 1), S. aureus 195 (MRSA); conditions: Staphylococcus aureus, Muller-Hinton agar, overnight 37° C., read-out: MIC (minimum growth inhibitory concentration)
Procedure: as §1, §2, §3

P. aeruginosa AKR17 = test: MIC against standard strains (Table 1), P. aeruginosa AKR17; conditions: Pseudomonas aeruginosa, Muller-Hinton agar, overnight 37° C., read-out: MIC (minimum growth inhibitory concentration)
Procedure: as §1, §2, §3

M. luteus ATCC 9341 = test: MIC against standard strains (Table 1), M. luteus ATCC 9341; conditions: Micrococcus luteus, ATCC9341, Muller-Hinton agar, overnight 37° C., read-out: MIC (minimum growth inhibitory concentration)
Procedure: as §1, §2, §3

E. coli CSH2(RK1) = test: MIC against standard strains (Table 1), E. coli CSH2(RK1); conditions: Escherichia coli, read-out: MIC (minimum growth inhibitory concentration)
Procedure: as §1, §2, §3

A. faecalis ATCC 3750 = test: MIC against standard strains (Table 1), A. faecalis ATCC 3750; conditions: Alcaligenes faecalis, ATCC3750, Muller-Hinton agar, overnight 37° C., read-out: MIC (minimum growth inhibitory concentration)
Procedure: as §1, §2, §3

M. morganii IFO 3848 = test: MIC against standard strains (Table 1), M. morganii IFO 3848; conditions: Morganella morganii, IFO3848, Muller-Hinton agar, overnight 37° C., read-out: MIC (minimum growth inhibitory concentration)
Procedure: as §1, §2, §3

S. marcescens No. 16-2 = test: MIC against standard strains (Table 1), S. marcescens No. 16-2; conditions: Serratia marcescens, NO.162, Muller-Hinton agar, overnight 37° C., read-out: MIC (minimum growth inhibitory concentration)
Procedure: as §1, §2, §3

E. coli JC-2 = test: MIC against standard strains (Table 1), E. coli JC-2; conditions: Escherichia coli, JC2, Muller-Hinton agar, overnight 37° C., read-out: MIC (minimum growth inhibitory concentration)
Procedure: as §1, §2, §3

K. pneuminiae No. 42 = test: MIC against standard strains (Table 1), K. pneuminiae No. 42; conditions: Muller-Hinton agar, overnight 37° C., read-out: MIC (minimum growth inhibitory concentration)
Procedure: as §1, §2, §3

C. freundii ATCC 8090 = test: MIC against standard strains (Table 1), C. freundii ATCC 8090; conditions: Citrobacter freundii, ATCC8090, Muller-Hinton agar, overnight 37° C., read-out: MIC (minimum growth inhibitory concentration)
Procedure: as §1, §2, §3

S. aureus Smith = test: MIC against standard strains (Table 1), S. aureus Smith; conditions: Staphylococcus aureus, Muller-Hinton agar, overnight 37° C., read-out: MIC (minimum growth inhibitory concentration)
Procedure: as §1, §2, §3

P. vulugaris OX-19 = test: MIC against standard strains (Table 1), P. vulugaris OX-19; conditions: Muller-Hinton agar, overnight 37° C., read-out: MIC (minimum growth inhibitory concentration)
Procedure: as §1, §2, §3

K. pneuminiae IFO 3317 = test: MIC against standard strains (Table 1), K. pneuminiae IFO 3317; conditions: Muller-Hinton agar, overnight 37° C., read-out: MIC (minimum growth inhibitory concentration)
Procedure: as §1, §2, §3

S. aureus 209p JC-1 = test: MIC against standard strains (Table 1), S. aureus 209p JC-1; conditions: Staphylococcus aureus, Muller-Hinton agar, overnight 37° C., read-out: MIC (minimum growth inhibitory concentration)
Procedure: as §1, §2, §3

S. aureus 167 = test: MIC against standard strains (Table 1), S. aureus 167 (MRSA); conditions: Staphylococcus aureus, Muller-Hinton agar, overnight 37° C., read-out: MIC (minimum growth inhibitory concentration)
Procedure: as §1, §2, §3

S. marcescens IAM 1184 = test: MIC against standard strains (Table 1), S. marcescens IAM 1184; conditions: Serratia marcescens, IAM1184, Muller-Hinton agar, overnight 37° C., read-out: MIC (minimum growth inhibitory concentration)
Procedure: as §1, §2, §3

E. cloacae ATCC 13407 = test: MIC against standard strains (Table 1), E. cloacae ATCC 13407; conditions: Enterobacter cloacae, ATCC13407, Muller-Hinton agar, overnight 37° C., read-out: MIC (minimum growth inhibitory concentration)
Procedure: as §1, §2, §3

B. subtilis ATCC 6633 = test: MIC against standard strains (Table 1), B. subtilis ATCC 6633; conditions: Bacillus subtilis, ATCC6633, Muller-Hinton agar, overnight 37° C., read-out: MIC (minimum growth inhibitory concentration)
Procedure: as §1, §2, §3

S. epidemidis IAM 1296 = test: MIC against standard strains (Table 1), S. epidemidis IAM 1296; conditions: Muller-Hinton agar, overnight 37° C., read-out: MIC (minimum growth inhibitory concentration)
Procedure: as §1, §2, §3

P. cepacia CN 9113 = test: MIC against standard strains (Table 1), P. cepacia CN 9113; conditions: Burkholderia cepacia, CN9113, Muller-Hinton agar, overnight 37° C., read-out: MIC (minimum growth inhibitory concentration)
Procedure: as §1, §2, §3

A. calcoaceticos T59 = test: MIC against standard strains (Table 1), A. calcoaceticos T59; conditions: Muller-Hinton agar, overnight 37° C., read-out: MIC (minimum growth inhibitory concentration)
Procedure: as §1, §2, §3

E. coli CSH2(RE45) = test: MIC against standard strains (Table 1), E. coli CSH2(RE45); conditions: Escherichia coli, read-out: MIC (minimum growth inhibitory concentration)
Procedure: as §1, §2, §3

clinically isolated MRSA = test: Antibacterial potency against clinically isolated MRSA (47 strains); conditions: Staphylococcus aureus
Procedure: A test on the antibacterial potency against clinically isolated MRSA was conducted in the following way.
That is, using 47 strains of clinically isolated MRSA, MIC was determined for each of the test strains in accordance with the standard method of the Japan Chemotherapical Society as in Test Example 1, and the minimum growth inhibitory concentration which inhibited growth of 50% of the strains tested was expressed as MIC50 (μg/ml), and the minimum growth inhibitory concentration which inhibited growth of 90% of the strains tested was expressed as MIC90 (μg/ml).
In this test, FMOX was used as the control agent.

| Compound | MIC (P. aeruginosa NCTC 10490) [µg/mL] | MIC (P. mirabilis IFO 3849) [µg/mL] | MIC (E. cloacae Nek39) [µg/mL] | MIC (S. aureus 195) [µg/mL] | MIC (P. aeruginosa AKR17) [µg/mL] | MIC (M. luteus ATCC 9341) [µg/mL] | MIC (E. coli CSH2(RK1)) [µg/mL] | MIC (A. faecalis ATCC 3750) [µg/mL] | MIC (M. morganii IFO 3848) [µg/mL] | MIC (S. marcescens No. 16-2) [µg/mL] | MIC (E. coli JC-2) [µg/mL] | MIC (K. pneuminiae No. 42) [µg/mL] | MIC (C. freundii ATCC 8090) [µg/mL] | MIC (S. aureus Smith) [µg/mL] | MIC (P. vulugaris OX-19) [µg/mL] | MIC (K. pneuminiae IFO 3317) [µg/mL] | MIC (S. aureus 209p JC-1) [µg/mL] | MIC (S. aureus 167) [µg/mL] | MIC (S. marcescens IAM 1184) [µg/mL] | MIC (E. cloacae ATCC 13407) [µg/mL] | also measured |
| --- | --- | --- | --- | --- | --- | --- | --- | --- | --- | --- | --- | --- | --- | --- | --- | --- | --- | --- | --- | --- | --- |
| CN(C)CCn1nnnc1SCC1=C(C(=O)O)N2C(=O)[C@@H](NC(=O)Cc3csc(N)n3)[C@H]2SC1 [CTM, cefotiam, reference compound] | 100 (≈ 190 µM) | 0.39 (≈ 0.742 µM) | > 100 | > 100 | > 100 | 0.39 (≈ 0.742 µM) | 0.2 (≈ 0.38 µM) | 3.13 (≈ 5.95 µM) | 0.2 (≈ 0.38 µM) | > 100 | 0.2 (≈ 0.38 µM) | 0.39 (≈ 0.742 µM) | 0.78 (≈ 1.48 µM) | 0.78 (≈ 1.48 µM) | 0.39 (≈ 0.742 µM) | 0.2 (≈ 0.38 µM) | 0.78 (≈ 1.48 µM) | > 100 | 3.13 (≈ 5.95 µM) | > 100 | MIC (B. subtilis ATCC 6633): 0.39 µg/mL (≈ 0.742 µM); MIC (S. epidemidis IAM 1296): 0.39 µg/mL (≈ 0.742 µM); MIC (P. cepacia CN 9113): > 100 µg/mL; MIC (A. calcoaceticos T59): > 100 µg/mL; MIC (E. coli CSH2(RE45)): 0.39 µg/mL (≈ 0.742 µM) |
| CO/N=C(\C(=O)N[C@@H]1C(=O)N2C(C(=O)[O-])=C(/C=C/C[n+]3cccc(-c4csc(N)n4)c3)CS[C@H]12)c1csc(N)n1 [Compound 5, 7β-[2-(2-aminothiazol-4-yl)-2-syn-methoxyiminoacetamido]-3-[(E)-3-[3-(2-aminothiazol-4-yl)pyridinio]-1-propenyl]-3-cephem-4-carboxylate] | 1.56 (≈ 2.61 µM) | 0.1 (≈ 0.167 µM) | 3.13 (≈ 5.23 µM) | 12.5 (≈ 20.9 µM) | > 100 | 0.025 (≈ 0.0418 µM) | 0.05 (≈ 0.0835 µM) | 0.78 (≈ 1.3 µM) | 0.025 (≈ 0.0418 µM) | 1.56 (≈ 2.61 µM) | 0.025 (≈ 0.0418 µM) | 0.2 (≈ 0.334 µM) | 0.025 (≈ 0.0418 µM) | 0.39 (≈ 0.651 µM) | 0.025 (≈ 0.0418 µM) | 0.025 (≈ 0.0418 µM) | 0.39 (≈ 0.651 µM) | 100 (≈ 167 µM) | 0.025 (≈ 0.0418 µM) | 0.2 (≈ 0.334 µM) | MIC (B. subtilis ATCC 6633): 0.39 µg/mL (≈ 0.651 µM); MIC (S. epidemidis IAM 1296): 0.2 µg/mL (≈ 0.334 µM); MIC (P. cepacia CN 9113): 50 µg/mL (≈ 83.5 µM); MIC (A. calcoaceticos T59): 12.5 µg/mL (≈ 20.9 µM); MIC (E. coli CSH2(RE45)): 0.2 µg/mL (≈ 0.334 µM) |
| CO/N=C(\C(=O)N[C@@H]1C(=O)N2C(C(=O)[O-])=C(/C=C/C[n+]3cccc(NC(N)=O)c3)CS[C@H]12)c1csc(N)n1 [Compound 6, 7β-[2-(2-aminothiazol-4-yl)-2-syn-methoxyiminoacetamido]-3-[(E)-3-(3-ureidopyridinio]-1-propenyl]-3-cephem-4-carboxylate] | 0.39 (≈ 0.698 µM) | 0.025 (≈ 0.0448 µM) | 3.13 (≈ 5.6 µM) | 12.5 (≈ 22.4 µM) | > 100 | 0.025 (≈ 0.0448 µM) | 0.025 (≈ 0.0448 µM) | 0.39 (≈ 0.698 µM) | 0.025 (≈ 0.0448 µM) | 0.78 (≈ 1.4 µM) | 0.025 (≈ 0.0448 µM) | 0.1 (≈ 0.179 µM) | 0.025 (≈ 0.0448 µM) | 0.39 (≈ 0.698 µM) | 0.025 (≈ 0.0448 µM) | 0.025 (≈ 0.0448 µM) | 0.39 (≈ 0.698 µM) | 50 (≈ 89.5 µM) | 0.025 (≈ 0.0448 µM) | 0.2 (≈ 0.358 µM) | MIC50 (clinically isolated MRSA; concentration inhibiting growth of 50% of 47 clinically isolated MRSA strains): 13.8 µg/mL (≈ 24.7 µM); MIC90 (clinically isolated MRSA; concentration inhibiting growth of 90% of 47 clinically isolated MRSA strains): 67 µg/mL (≈ 120 µM); MIC (B. subtilis ATCC 6633): 0.2 µg/mL (≈ 0.358 µM); MIC (S. epidemidis IAM 1296): 0.2 µg/mL (≈ 0.358 µM); MIC (P. cepacia CN 9113): 50 µg/mL (≈ 89.5 µM); MIC (A. calcoaceticos T59): 6.25 µg/mL (≈ 11.2 µM); MIC (E. coli CSH2(RE45)): 0.1 µg/mL (≈ 0.179 µM) |
